Earlier results, collected in Sander's compilation of Henry's law constants (doi:10.1002/etc.5620190905).

Assay: Henry solubility constant Hcp at 298.15 K (mol/(m3 Pa))
Conditions: reference: Armbrust (2000); cited value

Row | Compound | Henry solubility constant Hcp
1 | N#Cc1c(Cl)c(Cl)c(Cl)c(C#N)c1Cl [2,4,5,6-tetrachloro-1,3-dicyanobenzene] | 45
2 | O=C(O)COc1ccc(Cl)cc1Cl [(2,4-dichlorophenoxy)-ethanoic acid] | 5.5e+06
3 | CCN(CC)C(=O)SCc1ccc(Cl)cc1 [S-(4-chlorobenzyl) diethylthiocarbamate] | 37
4 | O=C(O)COc1nc(Cl)c(Cl)cc1Cl [[(3,5,6-trichloro-2-pyridinyl)oxy]-acetic acid] | 12000
5 | COC(=O)c1ccccc1CS(=O)(=O)NC(=O)Nc1nc(OC)cc(OC)n1 [bensulfuron methyl] | 7e+10
6 | CCOP(=S)(OCC)Oc1nc(Cl)c(Cl)cc1Cl [chlorpyrifos] | 1.4
7 | COc1nc(C)nc(NC(=O)NS(=O)(=O)c2ccccc2Cl)n1 [chlorsulfuron] | 150000
8 | COc1c(Cl)ccc(Cl)c1C(=O)O [dicamba] | 22000
9 | O=[N+]([O-])/N=C1\NCCN1Cc1ccc(Cl)nc1 [imidacloprid] | 4.9e+09
10 | CC(C)Oc1cc(-n2nc(C(C)(C)C)oc2=O)c(Cl)cc1Cl [oxadiazon] | 140
11 | COC(=O)c1ccccc1S(=O)(=O)NC(=O)Nc1nc(C)cc(C)n1 [sulfometuron methyl] | 8.2e+12
